Results reported in patent US4593093A, “Acyl derivatives” (priority 1980, dated 1986).
Counter-ions that a name gives are not always drawn. Like-named read-outs stand apart in the source and are kept apart here.

How the values were obtained:
Pseudomonas aeruginosa [1] = test: Activity in vitro: minimum inhibitory concentration; format: cell-based
Citrobacter freundii = test: as above; format: cell-based
Proteus vulgaris = test: as above; format: cell-based
Toxicity, LD50 = details: in vivo
Serratia marcescens [2] = test: Activity in vitro: minimum inhibitory concentration; format: cell-based
Proteus mirabilis = test: as above; format: cell-based
Streptococcus pyogenes [3] = test: as above; format: cell-based
Escherichia coli [4] = test: as above; format: cell-based
Proteus morganii = test: as above; format: cell-based; details: Morganella morganii
Staphylococcus aureus = test: as above; format: cell-based
Pseudomonas aeruginosa [5] = test: Activity in vivo: survival of intraperitoneally infected mice; details: sc, 96 h; mice infected i.p. with Pseudomonas aeruginosa; s.c. three times, 1 h, 3 h and 5 h after infection; survival on 4th day; read-out: CD50 (dosage at which 50% of the animals survive)
Description: (§1) Groups of 5 mice are infected intraperitoneally with an aqueous suspension of various pathogens. The test substance in physiological sodium chloride solution is administered subcutaneously twice, i.e. 1 hour and 3 hours after the infection. The number of surviving animals is determined on the 4th day. Various dosages are administered and that dosage at which 50% of the experimental animals survive (CD50, mg/kg) is determined by interpolation.
*Administered subcutaneously three times: 1 hour, 3 hours and 5 hours

Enterobacter cloacae [6] = test: Activity in vitro: minimum inhibitory concentration; format: cell-based
Streptococcus pyogenes [7] = test: Activity in vivo: survival of intraperitoneally infected mice; details: sc, 96 h; mice infected i.p. with Streptococcus pyogenes; s.c. twice, 1 h and 3 h after infection; survival on 4th day; read-out: CD50 (dosage at which 50% of the animals survive)
Description: as §1

Escherichia coli [8] = test: as above; details: sc, 96 h; mice infected i.p. with Escherichia coli; s.c. twice, 1 h and 3 h after infection; survival on 4th day; read-out: CD50 (dosage at which 50% of the animals survive)
Description: as §1

Serratia marcescens [9] = test: as above; details: sc, 96 h, mice infected i.p. with Serratia marcescens strain 1, s.c. twice, 1 h and 3 h after infection, survival on 4th day, read-out: CD50 (dosage at which 50% of the animals survive)
Description: as §1

Klebsiella pseumoniae = test: Activity in vitro: minimum inhibitory concentration; format: cell-based
Streptococcus pneumoniae = test: as above; format: cell-based
Neisseria moningitidis = test: Activity in vivo: survival of intraperitoneally infected mice; details: sc, 96 h; mice infected i.p. with Neisseria moningitidis; s.c. twice, 1 h and 4 h after infection; survival on 4th day; read-out: CD50 (dosage at which 50% of the animals survive)
Description: as §1
**Administered subcutaneously twice: 1 hour and 4 hours after the […]

Enterobacter aerogenes = test: Activity in vitro: minimum inhibitory concentration; format: cell-based; details: Klebsiella aerogenes
Staphylococcus epidermis = test: as above; format: cell-based
Proteus inconstans = test: as above; format: cell-based; details: Providencia alcalifaciens
Streptococcus faecalis = test: as above; format: cell-based; details: Enterococcus faecalis
Streptococcus viridans = test: as above; format: cell-based
Enterobacter cloacae [10] = test: Activity in vivo: survival of intraperitoneally infected mice; details: sc, 96 h; mice infected i.p. with Enterobacter cloacae; s.c. twice, 1 h and 3 h after infection; survival on 4th day; read-out: CD50 (dosage at which 50% of the animals survive)
Description: as §1

Haemophilus influenzae = test: as above; details: sc, 96 h; mice infected i.p. with Haemophilus influenzae; s.c. twice, 1 h and 3 h after infection; survival on 4th day; read-out: CD50 (dosage at which 50% of the animals survive)
Description: as §1

Proteus rettgeri = test: Activity in vitro: minimum inhibitory concentration; format: cell-based; details: Providencia rettgeri
[11] = Pseudomonas aeruginosa strain 1
[12] = Pseudomonas aeruginosa strain 2
[13] = Pseudomonas aeruginosa strain 3
[14] = Streptococcus pyogenes strain 1, read-out: Minimum inhibitory concentration

SMILES: CO/N=C(\C(=O)N[C@@H]1C(=O)N2C(C(=O)O)=C(COC(C)=O)CS[C@H]12)c1c[se]c(N)n1 [Product D, (6R, 7R)-3-(acetoxymethyl)-7-[2-(2-amino-4-selenazolyl)-2-[(Z)-methoxyimino]-acetamido]-8-oxo-5-thia-1-azabicyclo[4.2.0]oct-2-ene-2-carboxylic acid disodium salt]
- MIC (Pseudomonas aeruginosa [1]; [11]): 12.5 µg/mL
- MIC (Pseudomonas aeruginosa [1]; [12]): 12.5 µg/mL
- MIC (Pseudomonas aeruginosa [1]; [13]): 3.1 µg/mL
- MIC (Citrobacter freundii; Citrobacter freundii strain 1): 6.3 µg/mL
- MIC (Proteus vulgaris): 0.78 µg/mL
- LD50 (Toxicity, LD50; po): > 5000 mg/kg
- LD50 (Toxicity, LD50; sc): > 4000 mg/kg
- MIC (Serratia marcescens [2]; Serratia marcescens strain 1): 0.8 µg/mL
- MIC (Serratia marcescens [2]; Serratia marcescens strain 2): 0.8 µg/mL
- MIC (Proteus mirabilis; Proteus mirabilis strain 1): 0.025 µg/mL
- MIC (Proteus mirabilis; Proteus mirabilis strain 2): 0.05 µg/mL
- MIC (Streptococcus pyogenes [3]; [14]): 0.05 µg/mL
- MIC (Escherichia coli [4]; Escherichia coli strain 1): 0.1 µg/mL
- MIC (Escherichia coli [4]; Escherichia coli strain 2): 0.025 µg/mL
- MIC (Proteus morganii): 0.39 µg/mL
- MIC (Staphylococcus aureus; Staphylococcus aureus strain 1): 0.8 µg/mL
- MIC (Staphylococcus aureus; Staphylococcus aureus strain 2): 3.1 µg/mL
- ED50 (Pseudomonas aeruginosa [5]): 35 mg/kg
- MIC (Enterobacter cloacae [6]; Enterobacter cloacae strain 1): > 100 µg/mL
- MIC (Enterobacter cloacae [6]; Enterobacter cloacae strain 2): 3.1 µg/mL
- ED50 (Streptococcus pyogenes [7]): 0.05 mg/kg
- ED50 (Escherichia coli [8]): < 0.01 mg/kg
- ED50 (Serratia marcescens [9]): 0.14 mg/kg
- MIC (Klebsiella pseumoniae; Klebsiella pseumoniae strain 1): 0.2 µg/mL
- MIC (Klebsiella pseumoniae; Klebsiella pseumoniae strain 2): 0.025 µg/mL

SMILES: CO/N=C(\C(=O)N[C@@H]1C(=O)N2C(C(=O)O)=C(CSc3nc(=O)c(O)nn3C)C[S+]([O-])[C@H]12)c1c[se]c(N)n1 (stereo partly drawn) [Product E, (6R, 7R)-7-[2-(2-amino-4-selenazolyl)-2-[(Z)-methoxyimino]-acetamido]-3-[[(2,5-dihydro-6-hydroxy-2-methyl-5-oxo-as-triazin-3-yl)-thio]methyl]-8-oxo-5-thia-1-azabicyclo[4.2.0]oct-2-ene-2-carboxylic acid 5-oxide disodium salt]
- MIC (Pseudomonas aeruginosa [1]; [11]): 100 µg/mL
- MIC (Pseudomonas aeruginosa [1]; [12]): 100 µg/mL
- MIC (Pseudomonas aeruginosa [1]; [13]): 50 µg/mL
- MIC (Streptococcus pneumoniae): 3.1 µg/mL
- MIC (Citrobacter freundii; Citrobacter freundii strain 1): 0.1 µg/mL
- MIC (Citrobacter freundii; Citrobacter freundii strain 2): 0.1 µg/mL
- ED50 (Neisseria moningitidis): < 0.1 mg/kg
- MIC (Enterobacter aerogenes; Enterobacter aerogenes strain 1): 0.1 µg/mL
- MIC (Enterobacter aerogenes; Enterobacter aerogenes strain 2): 0.05 µg/mL
- MIC (Staphylococcus epidermis): > 12 µg/mL
- LD50 (Toxicity, LD50; po): > 5000 mg/kg
- LD50 (Toxicity, LD50; sc): > 4000 mg/kg
- MIC (Serratia marcescens [2]; Serratia marcescens strain 1): 0.8 µg/mL
- MIC (Serratia marcescens [2]; Serratia marcescens strain 2): 0.8 µg/mL
- MIC (Serratia marcescens [2]; Serratia marcescens strain 3): 0.2 µg/mL
- MIC (Proteus mirabilis; Proteus mirabilis strain 3): 0.05 µg/mL
- MIC (Proteus mirabilis; Proteus mirabilis strain 4): 0.4 µg/mL
- MIC (Proteus mirabilis; Proteus mirabilis strain 5): 0.1 µg/mL
- MIC (Streptococcus pyogenes [3]; [14]): 3.1 µg/mL
- MIC (Streptococcus pyogenes [3]; Streptococcus pyogenes strain 2, read-out: Minimum inhibitory concentration): 0.2 µg/mL
- MIC (Escherichia coli [4]; Escherichia coli strain 1): 0.1 µg/mL
- MIC (Escherichia coli [4]; Escherichia coli strain 2): 0.025 µg/mL
- MIC (Escherichia coli [4]; Escherichia coli strain 3): 0.8 µg/mL
- MIC (Escherichia coli [4]; Escherichia coli strain 4): 0.05 µg/mL
- MIC (Escherichia coli [4]; Escherichia coli strain 5): 0.4 µg/mL
- MIC (Proteus inconstans): 0.025 µg/mL
- MIC (Streptococcus faecalis; Streptococcus faecalis strain 1): > 12 µg/mL
- MIC (Streptococcus faecalis; Streptococcus faecalis strain 2): > 12 µg/mL
- MIC (Proteus morganii): 0.1 µg/mL
- MIC (Staphylococcus aureus; Staphylococcus aureus strain 1): > 12 µg/mL
- MIC (Staphylococcus aureus; Staphylococcus aureus strain 2): > 12 µg/mL
- MIC (Staphylococcus aureus; Staphylococcus aureus strain 3): > 12 µg/mL
- MIC (Staphylococcus aureus; Staphylococcus aureus strain 4): > 12 µg/mL
- ED50 (Pseudomonas aeruginosa [5]): 75 mg/kg
- MIC (Streptococcus viridans): > 12 µg/mL
- MIC (Enterobacter cloacae [6]; Enterobacter cloacae strain 1): 1.6 µg/mL
- MIC (Enterobacter cloacae [6]; Enterobacter cloacae strain 2): 0.2 µg/mL
- MIC (Enterobacter cloacae [6]; Enterobacter cloacae strain 3): 1.6 µg/mL
- ED50 (Streptococcus pyogenes [7]): 0.13 mg/kg
- ED50 (Enterobacter cloacae [10]): 0.06 mg/kg
- ED50 (Escherichia coli [8]): 0.017 mg/kg
- ED50 (Serratia marcescens [9]): 0.03 mg/kg
- ED50 (Haemophilus influenzae): 1.8 mg/kg
- MIC (Klebsiella pseumoniae; Klebsiella pseumoniae strain 1): 0.1 µg/mL
- MIC (Klebsiella pseumoniae; Klebsiella pseumoniae strain 2): 0.05 µg/mL
- MIC (Klebsiella pseumoniae; Klebsiella pseumoniae strain 3): 0.1 µg/mL
- MIC (Proteus rettgeri): 0.05 µg/mL
